Measurements reported in publication PMC10180065, “Mechanistic Studies of Arene–Ruthenium(II) Complexes with Carbothioamidopyrazoles as Alternative Cancer Drugs” (Molecules, 2023).

Experiments:
HT29 = assay: MTT cytotoxicity, HT29; format: cell-based, human; settings: 48 h incubation, read-out: Cytotoxic effect, IC50
Description: (§1) Cytotoxicity was evaluated against fifteen adherent human cancer cell lines using the MTT test: colorectal adenocarcinoma cells Caco2 (ATCC® HTB-37™), colorectal adenocarcinoma cells HT29 (ATCC® HTB-38™), colon colorectal carcinoma HCT116 (ATCC® CCL-247™), colon adenocarcinoma COLO205 (ATCC® CCL-222™), colorectal adenocarcinoma SW620 (ATCC® CCL-227™), colorectal adenocarcinoma grade IV LoVo (ATCC® CCL-229™), hepatocellular carcinoma Hep 3b (ATCC® HB-8064™), endometrium adenocarcinoma HEC1A (ATCC® HTB-112™), Ishikawa (99040201; Sigma–Aldrich Sigma, St. Louis, MO, USA), cervical adenocarcinoma cells HeLa (ATCC® CCL-2™), lung epithelial carcinoma A549 (ATCC® CRM-CCL-185™), breast epithelial adenocarcinoma cell positive for estrogen and progesterone receptors MCF7 (ATCC® HTB-22™) and negative for expression of estrogen receptor HCC38 (ATCC® CRL-2314™), acute promyelocytic leukemia HL-60 (ATCC® CCL-240™), skin melanoma WM115 (ATCC® CRL-1676™), and 1 suspension cancer cell line: acute lymphoblastic leukemia NALM6 (purchased from the German Collection of Microorganisms and Cell Cultures). HT29, NALM6, HCC-38 and HL-60 cells were cultured in RPMI 1640 medium (Thermo Fisher Scientific, Waltham, MA, USA) supplemented with 10% fetal bovine serum and antibiotic (gentamicin 25 μg ml^−1) (Gibco, Grand Island, New York, NY, USA). For the remaining tumor cell lines, Dulbecco’s minimal essential medium (DMEM, Lonza, Visp, Switzerland) supplemented with 10% fetal bovine serum and antibiotic instead of RPMI 1640 was used. In addition, Human Microvascular Endothelial Cells (HMEC1), which were obtained from the American Type Culture Collection (Manassas, VA, USA), were used as a model of normal cells. HMEC-1 were cultured in MCDB131 medium (Corning Life Sciences, Corning, NY, USA), supplemented with 10% fetal bovine serum, 10 ng/mL Epidermal Growth Factor (Millipore, Burlington, MA, USA) and 10 mM glutamine (Corning Life Sciences). All cells were grown at 37 °C in humidified atmosphere of 5% CO2 in air. The exponential growth of cells was maintained by regular passaging at 90% confluence three times a week using 0.025% trypsin/EDTA (Gibco, Grand Island, New York, NY, USA).
(§2) The cytotoxicity was tested by a standard MTT [3-(4,5-dimethylthiazol-2-yl)-2,5-diphenyltetrazolium bromide] (Sigma, St. Louis, MO, USA) microplate cell viability assay. The anticancer activity of the investigated compounds was evaluated in vitro on the basis of their ability to inhibit the proliferation of various cancer cells. Exponentially growing cells were seeded a day before the experiment into a 96-well microplate (Nunc, Roskilde, Denmark) at a density up to 6–8 × 10^3 cells/mL (depending on the cell line) and exposed to the test compounds at a wide range of concentrations for 48 h. Subsequently, various concentrations of the studied compounds (10^−7–10^−5 M) freshly prepared in DMSO (final concentration of <0.1% DMSO) and diluted with complete culture medium were added. After 48 h incubation, the cells were immediately subjected to a cell viability assay. At this time point, the number of viable cells in each well was estimated by the MTT test. Briefly, 50 µL (5 mg/mL final concentration) of MTT was added to each microplate well. This procedure was then followed by a three- to four-hour incubation at 37 °C. After incubation, MTT solution was replaced with 100 µL DMSO/well, which solubilized the formazan crystals formed by the dehydrogenases of metabolically active cells. Purple formazan absorbance was measured spectrophotometrically at 570 nm.

Colo205 [1] = assay: MTT cytotoxicity, Colo205; format: cell-based, human; settings: 48 h incubation, read-out: Cytotoxic effect, IC50
Description: as §1, §2

SW620 = assay: MTT cytotoxicity, SW620; format: cell-based, human; settings: 48 h incubation, read-out: Cytotoxic effect, IC50
Description: as §1, §2

LoVo = assay: MTT cytotoxicity, LoVo; format: cell-based, human; settings: 48 h incubation, read-out: Cytotoxic effect, IC50
Description: as §1, §2

Caco2 = assay: MTT cytotoxicity, Caco2; format: cell-based, human; settings: 48 h incubation, read-out: Cytotoxic effect, IC50
Description: as §1, §2

Hep 3b = assay: MTT cytotoxicity, Hep 3b; format: cell-based, human; settings: 48 h incubation, read-out: Cytotoxic effect, IC50
Description: as §1, §2

HEC1A [2] = assay: MTT cytotoxicity, HEC1A; format: cell-based, human; settings: 48 h incubation, read-out: Cytotoxic effect, IC50
Description: as §1, §2

Ishikawa = assay: MTT cytotoxicity, Ishikawa; format: cell-based, human; settings: 48 h incubation, read-out: Cytotoxic effect, IC50
Description: as §1, §2

Hela = assay: MTT cytotoxicity, Hela; format: cell-based, human; settings: 48 h incubation, read-out: Cytotoxic effect, IC50
Description: as §1, §2

A549 = assay: MTT cytotoxicity, A549; format: cell-based, human; settings: 48 h incubation, read-out: Cytotoxic effect, IC50
Description: as §1, §2

HCC38 = assay: MTT cytotoxicity, HCC38; format: cell-based, human; settings: 48 h incubation, read-out: Cytotoxic effect, IC50
Description: as §1, §2

MCF7 = assay: MTT cytotoxicity, MCF7; format: cell-based, human; settings: 48 h incubation, read-out: Cytotoxic effect, IC50
Description: as §1, §2

WM115 = assay: MTT cytotoxicity, WM115; format: cell-based, human; settings: 48 h incubation, read-out: Cytotoxic effect, IC50
Description: as §1, §2

NALM6 = assay: MTT cytotoxicity, NALM6; format: cell-based, human; settings: 48 h incubation, read-out: Cytotoxic effect, IC50
Description: as §1, §2

HL60 = assay: MTT cytotoxicity, HL60; format: cell-based, human; settings: 48 h incubation, read-out: Cytotoxic effect, IC50
Description: as §1, §2

[3] = test system: human microvascular endothelial cell line HMEC1; assay: MTT cytotoxicity, normal endothelial cells HMEC1; format: cell-based; settings: for IC50: HMEC1 normal endothelial cells, 48 h incubation, read-out: Cytotoxic effect, IC50; for IC50 for HMEC-1 higher than for cancer cells (selectivity): HMEC-1 vs cancer cells
Description: as §1, §2

human cancer cell lines = assay: MTT cytotoxicity, summary statements over the cancer cell line panel; format: cell-based; settings: read-out: IC50 for seven (2c) and six (3c) cancer cell lines
Description: Cytotoxicity was evaluated against fifteen adherent human cancer cell lines using the MTT test: colorectal adenocarcinoma cells Caco2 (ATCC® HTB-37™), colorectal adenocarcinoma cells HT29 (ATCC® HTB-38™), colon colorectal carcinoma HCT116 (ATCC® CCL-247™), colon adenocarcinoma COLO205 (ATCC® CCL-222™), colorectal adenocarcinoma SW620 (ATCC® CCL-227™), colorectal adenocarcinoma grade IV LoVo (ATCC® CCL-229™), hepatocellular carcinoma Hep 3b (ATCC® HB-8064™), endometrium adenocarcinoma HEC1A (ATCC® HTB-112™), Ishikawa (99040201; Sigma–Aldrich Sigma, St. Louis, MO, USA), cervical adenocarcinoma cells HeLa (ATCC® CCL-2™), lung epithelial carcinoma A549 (ATCC® CRM-CCL-185™), breast epithelial adenocarcinoma cell positive for estrogen and progesterone receptors MCF7 (ATCC® HTB-22™) and negative for expression of estrogen receptor HCC38 (ATCC® CRL-2314™), acute promyelocytic leukemia HL-60 (ATCC® CCL-240™), skin melanoma WM115 (ATCC® CRL-1676™), and 1 suspension cancer cell line: acute lymphoblastic leukemia NALM6 (purchased from the German Collection of Microorganisms and Cell Cultures). […]
The cytotoxicity was tested by a standard MTT [3-(4,5-dimethylthiazol-2-yl)-2,5-diphenyltetrazolium bromide] […] The anticancer activity of the investigated compounds was evaluated in vitro on the basis of their ability to inhibit the proliferation of various cancer cells. […]

Lipophilicity by RP-TLC = format: physicochemical; set-up: key: RM = log(1/Rf − 1), Rf = a/b; settings: eluent AcCN: H2O at 30–70% v/v, 22 °C
Description: All the experimental solutions of standard substances (0.1 mg/mL) were prepared by dissolving ligands (1a–1d) or ruthenium complexes (2a/3a–2d/3d) in ethanol. Commercially-available octadecyl-modified silica aluminum sheets (20 × 20 cm) were cut into 5 × 10 cm plates. The plates were manually spotted with 1.0 μL of freshly prepared solutions using automatic pipets, 5 mm from each edge. The chromatograms for all compounds (1a/2a/3a–1d/2d/3d) were developed using a horizontal developing chamber and the solvent migration distance was about 4.5 cm. The plates were visually inspected under UV light at 254 nm. Each zone was clearly marked and its distance was manually measured. The RP-TLC analyses of lipophilicity were performed at ambient temperature (22 °C). In this experiment, all measurements were performed in triplicate and the obtained results were used in further calculations. The acetonitrile and water mixtures for ligands 1a–1d and arene–ruthenium(II) complexes 2a/3a–2d/3d were used as mobile phases, with […] content increasing in the range of 30–70% v/v, at 5% intervals. Values of the chromatographic retention coefficient Rf (as shown Formula (1)) and RM (as shown Formula (2)), based on received chromatograms, were calculated and converted as follows:(1) Rf=a/b (2) RM=log1/Rf−1

Colo205 [4] = assay: RNS generation, DAF-FM probe, COLO205; format: cell-based, human; settings: COLO205, 24 h at IC50 concentration
PARP1 = assay: Cleaved PARP level (ELISA), COLO205 cells; format: cell-based, human; settings: COLO205, 24 h at IC50 concentration
Description: Cells (1 × 10^6) were seeded in 35 mm dishes and cultured for 24 h in the appropriate medium until they reached log phase growth. […] After incubation, the medium was removed, the cells were washed with PBS solution and trypsinized. The harvested cell pellet was lysed in RIPA buffer (50 mM Tris-HCL, pH 8.0, with 150 mM sodium chloride, 1.0% Igepal CA-630 (NP-40), 0.5% sodium deoxychlorate, and 0.1% sodium dodecyl sulfate) with protease inhibitor (phenylmethylsulfonyl fluoride) (Sigma-Aldrich Sigma, St. Louis, MO, USA). The level of cleaved PARP was estimated using the PARP Cleaved [214/215] ELISA kit (Invitrogen, Waltham, MA, USA) according to the protocol described in the manufacturer’s instructions.

HEC1A [5] = assay: Mitochondrial potential, JC-1 probe, HEC1A; format: cell-based, human; settings: IC50 concentration
Description: Cells (10 × 10^3/well) were seeded in black 96-well plates and grown for 24 h to reach the log phase. […] After removing the medium, the cell monolayer was washed twice with PBS solution and 50 μL of the JC-1 probe at a final concentration of 5 μM was added to the wells of the plate. The cells were incubated with the dye for 30 min in a CO2 incubator. Subsequently, the changes in the fluorescence of monomers (λex = 485 nm and λem = 525 nm) and aggregates (λex = 530 nm and λem = 590 nm) using JC-1 were monitored. The results of the tested trials were presented as the ratio of fluorescence of aggregates and JC1 monomers as a percentage of control values, which was assumed to be 100%.

| SMILES | IC50 (HT29) [µM] | IC50 (Colo205 [1]) [µM] | IC50 (SW620) [µM] | IC50 (LoVo) [µM] | IC50 (Caco2) [µM] | IC50 (Hep 3b) [µM] | IC50 (HEC1A [2]) [µM] | IC50 (Ishikawa) [µM] | IC50 (Hela) [µM] | IC50 (A549) [µM] | IC50 (HCC38) [µM] | IC50 (MCF7) [µM] | IC50 (WM115) [µM] | IC50 (NALM6) [µM] | IC50 (HL60) [µM] | IC50 [3] [µM] | IC50 for HMEC-1 higher than for cancer cells (selectivity) [3] | IC50 (human cancer cell lines) [µM] | Lipophilicity, RM (Lipophilicity by RP-TLC) | other results |
| --- | --- | --- | --- | --- | --- | --- | --- | --- | --- | --- | --- | --- | --- | --- | --- | --- | --- | --- | --- | --- |
| Cc1ccc(C(C)C)cc1.F[P-](F)(F)(F)(F)F.NC(=S)n1nc(-c2ccccc2)cc1O.[Cl-].[Ru+2] [3c] | 128 ± 4.2 | 26.7 ± 2.1 | 90.1 ± 1.7 | 32.4 ± 1.8 | 172 ± 8.2 | 52.1 ± 3.4 | 39.9 ± 4.1 | 124.3 ± 0.9 | 78.8 ± 1.1 | 191 ± 4.3 | 131 ± 2.2 | 30.4 ± 2.1 | 18.7 ± 1.7 | 19.8 ± 1.8 | 70.4 ± 6 | 164 ± 3.1 | 3–5 times | < 50 | 2.61 | increase in nitrogen peroxide (RNS, DAF-FM probe) vs. control (Colo205 [4]): ~25%; increase in level of PARP1 degradation vs. control (PARP1): approximately 85% |
| Cc1ccc(C(C)C)cc1.NC(=S)n1nc(-c2ccccc2)cc1O.[Cl-].[Cl][Ru+] [2c] | 29.5 ± 2.1 | 32.6 ± 3.3 | 49.4 ± 1.2 | 42.6 ± 3.2 | > 200 | 104 ± 4.4 | 24.5 ± 0.9 | 142 ± 7.4 | 124 ± 7.2 | > 200 | > 200 | 83.4 ± 7.3 | 26.7 ± 3.3 | 11.7 ± 1.6 | 86.5 ± 8 | 192 ± 6.5 | 3–5 times | < 50 | 2.27 | decrease in mitochondrial potential (JC-1) (HEC1A [5]): ~50% |
| Cc1cc(C)n(C(N)=S)n1.Cc1ccc(C(C)C)cc1.[Cl-].[Cl][Ru+] [2a] | 111 ± 4.9 | 110 ± 6.7 | 118 ± 6.1 | > 200 | > 200 | > 200 | 62.3 ± 0.9 | 90.7 ± 3.7 | > 200 | 121 ± 3.6 | 84.4 ± 1.1 | > 200 | 60.2 ± 6.3 | 51.6 ± 5.7 | 88.9 ± 6.1 | 156 ± 4.9 | 3–5 times |  | 2.40 |  |
